In patent US20190298846A1, “CELL TARGETING CONJUGATES” (LinXis B.V., priority 2016, published 2019):
Square brackets hold non-standard residues; d marks the D form. Peptide text beside a SMILES is read from it. * marks the point of attachment. Dolaproine = CO[C@@H]([C@@H]1CCCN1)[C@@H](C)C(=O)O; Dil = CC[C@H](C)[C@H](NC)[C@@H](CC(=O)O)OC; X1 = O=C(CCCCCN1C(=O)C=CC1=O)NCCOCCOCCN*; NMe2Val = CC(C)[C@@H](C(=O)*)N(C)C

Legend:
all tested cell lines = experiment: In vitro cell viability assay, drug-linkers versus ADCs; type: cell-based; conditions: AF-Lx quenched with thiourea, AF-Mal with n-acetyl-cysteine
Protocol: (§1) Before starting the assay, the AF-Lx and AF-Mal were quenched by incubation the compounds with 1 mol equiv. thiourea (2 hours, 37° C.) and n-acetyl-cysteine (30 minutes, 0° C.), respectively. The cells were trypsinized and plated in 96-well, flat-bottomed, tissue culture plates at day 0. On day 1, from the above mentioned compounds serial dilution series (9×4-fold dilutions) were made starting from 10 or 1000 nM (depending on type of cells and compounds) and added to the cells (in case of ADCs, concentration of the mAb was used). On day 5, the […] BLUE® reagent was added and incubated for 2 hours at 37° C., and viable cells were measured with a TeCan plate reader (Tecan Group Ltd.) at 560EX/590EM nm. Fluorescence values of the samples were corrected for background of cell culture medium, the results, presented as the percentage of survival, were calculated by dividing the fluorescence values of the treated cells by the values of the untreated control cells. The data were analyzed with Graphpad Prism 5 software.

JIMT-1 = experiment: In vitro cell viability assay ([…] BLUE); type: cell-based
Protocol: as §1, with “BLUE® Assay (Promega). Before” for “Before”, “Fluorescence values of the samples were corrected for background of cell culture medium, the results, presented as the percentage of survival, were calculated by dividing the fluorescence values of the treated cells by the values of the untreated control cells.” left out

MDA-MB-231 = experiment: In vitro cell viability assay ([…] BLUE); type: cell-based
Protocol: as §1, with “BLUE® Assay (Promega). Before” for “Before”, “Fluorescence values of the samples were corrected for background of cell culture medium, the results, presented as the percentage of survival, were calculated by dividing the fluorescence values of the treated cells by the values of the untreated control cells.” left out

NCI-N87 = experiment: In vitro cell viability assay ([…] BLUE); type: cell-based; conditions: concentration of the mAb for ADCs, day 5 readout
Protocol: as §1, with “BLUE® Assay (Promega). Before” for “Before”, “Fluorescence values of the samples were corrected for background of cell culture medium, the results, presented as the percentage of survival, were calculated by dividing the fluorescence values of the treated cells by the values of the untreated control cells.” left out

SK-BR-3 = experiment: In vitro cell viability assay ([…] BLUE); type: cell-based
Protocol: as §1, with “BLUE® Assay (Promega). Before” for “Before”, “Fluorescence values of the samples were corrected for background of cell culture medium, the results, presented as the percentage of survival, were calculated by dividing the fluorescence values of the treated cells by the values of the untreated control cells.” left out

SKOV-3 = experiment: In vitro cell viability assay ([…] BLUE); type: cell-based
Protocol: as §1, with “BLUE® Assay (Promega). Before” for “Before”, “Fluorescence values of the samples were corrected for background of cell culture medium, the results, presented as the percentage of survival, were calculated by dividing the fluorescence values of the treated cells by the values of the untreated control cells.” left out

NCI-N87 tumors = experiment: In vivo therapy study, NCI-N87 xenografts; parameters: species or system nude mice; conditions: single bolus injection 15 mg/kg
Protocol: (§2) Body weight was measured three times per week and MTD was reached when weight loss was >10% compared with the control mice. […] For this purpose, seven groups of 8 or 9 mice with established NCI-N87 or JIMT-1 xenografts in both flanks were used. […] All mice received an i.p. bolus injection. In the study with the NCI-N87 tumors, Group 1 was the control group and received 100 μL of saline solution. […] In the study with the JIMT-1 tumors, Group 1 was the control group and received 100 μL of saline solution. […] Body weight and tumor volume were measured three times per week up to 4 months after end of treatment.

JIMT-1 tumors = experiment: In vivo therapy study, JIMT-1 xenografts; parameters: species or system nude mice; conditions: single bolus injection (15 mg/kg; AF conjugates 15 and 30 mg/kg), follow-up to day 125
Protocol: as §2

Compound | potency of drug-linker lower compared to its corresponding ADC (all tested cell lines) | IC50 (JIMT-1; JIMT-1, T-DM1-resistant) | potency / IC50 in JIMT-1 cell line, in words (JIMT-1; T-DM1-resistant JIMT-1) | potency / IC50 in MDA-MB-231, in words (MDA-MB-231; HER2-negative MDA-MB-231) | IC50 (MDA-MB-231; MDA-MB-231, HER2-negative) | IC50 (NCI-N87) | IC50 (SK-BR-3) | IC50 (SKOV-3) | time at which tumors started regrowth (NCI-N87 tumors) | tumor growth response, in words (JIMT-1 tumors)
[Pt(en)(AF-(4-(12-amino-3-oxo-7,10-dioxa-2,4-diazadodecyl)piperidine))Cl](Cl) [AF-Lx] | 10^3-10^4 fold | – | – | – | – | – | – | – | – | –
CC[C@H](C)[C@@H]([C@@H](CC(=O)N1CCC[C@H]1[C@H](OC)[C@@H](C)C(=O)N[C@H](Cc1ccccc1)C(=O)NCCOCCOCCNC(=O)CCCCCN1C(=O)C=CC1=O)OC)N(C)C(=O)[C@@H](NC(=O)[C@H](C(C)C)N(C)C)C(C)C [AF-Mal, AF-PEG1-amide-Hex-Mal] (NMe2Val-V[Dil][Dolaproine][dF]-X1) | 10 fold | – | – | – | – | – | – | – | – | –
ado-trastuzumab emtansine [T-DM1] | – | 7 nM | an order of magnitude higher | lower IC50 | 200 nM | 0.105 nM | 0.021 nM | 0.013 nM | 20 days | minimal growth delay
